Test results as given in patent US20240307351A1, “AGENT FOR ANTI-AGING OR FOR CELLULAR REJUVENATION” (TOHOKU UNIVERSITY, priority 2022, published 2024).

Experiments:
[1] = tested on: liver cells of young mice; experiment: RNA-Seq and ChIP-Atlas analysis of liver cells of young mice; format: in vivo, mouse; details: oral, 50 mg/kg/day, 2 months, Table 3
Procedure: (§1) Water-suspended Compound #5 was orally administered to C57BL6 mice (12 weeks old) at a dose of 50 mg/kg/day per kg of mouse weight for 2 months ([MA5 addition group], n=5). After 2 months of oral administration, the mice were 20 weeks old.
(§2) In addition, water was orally administered to C57BL6 mice (12 weeks old) for 2 months ([Vehicle group], n=5). After 2 months of oral administration, the mice were 20 weeks old.
RNA sequencing (RNA-Seq) analysis was performed on the liver cells of young mice in [MA5 addition group] and [Vehicle group] to identify genes whose expression levels changed (increased or decreased) in [MA5 addition group] as compared with [Vehicle group]. Using the results of these gene names, integrated analysis with ChIP-Atlas was performed to investigate transcription factors possibly related to these genes.

[2] = tested on: genomic DNA of the liver cells; experiment: Degree of methylation of genomic DNA of liver cells by the bisulfite method; format: in vivo, mouse; details: oral, 50 mg/kg/day, 2 months
Procedure: Water-suspended Compound #5 was orally administered to C57BL6 mice (12 weeks old) at a dose of 50 mg/kg/day per kg of mouse weight for 2 months ([MA5 high dose addition group], n=5). The degree of methylation of the genomic DNA of the liver cells of the young mice was measured by the bisulfite method.
Water-suspended Compound #5 was orally administered to C57BL6 mice (92 weeks old) at a dose of 50 mg/kg/day per kg of mouse weight for 2 months ([MA5 addition group], n=5). The degree of methylation of the genomic DNA of the liver cells of the aged mice was measured by the bisulfite method. In Table 9 and Table 10, “Count” represents how many genes were related among genes related to the pathway. For example, in a pathway involving 20 genes, when there are three genes whose expression levels have been varied by administration of Compound #5, Count is 3, and “ %” thereof is a numerical value calculated by (3/20)×100.
“P-value” represents the p-value of the between-group comparison of pathways, and “Benjamini” represents the p-value calculated using the linear step-up method of Benjamini and Hochberg (1995) (see, for example, https://david.ncifcrf.gov/helps/functional_annotation.html for calculation method).

[3] = tested on: muscle cells of aged mice; experiment: RNA-Seq, pathway and ChIP-Atlas analysis of muscle cells of aged mice; format: in vivo, mouse; details: oral, 50 mg/kg/day, 2 months
Procedure: (§3) Water-suspended Compound #5 was orally administered to C57BL6 mice (92 weeks old) at a dose of 50 mg/kg/day per kg of mouse weight for 2 months ([MA5 addition group], n=5). After 2 months of oral administration, the mice were 101 weeks old.
(§4) In addition, water was orally administered to C57BL6 mice (92 weeks old) for 2 months ([Vehicle group], n=5). After 2 months of oral administration, the mice were 101 weeks old.
(§5) RNA sequencing (RNA-Seq) analysis was performed on the muscle cells of aged mice in [MA5 addition group] and [Vehicle group] to identify genes whose expression levels changed (increased or decreased) in [MA5 addition group] and [Vehicle group] compared to the muscle cells of young mice before administration.
(§6) Based on the names of genes whose expression levels increased or decreased in the aged mice of [MA5 addition group] as compared with the aged mice of [Vehicle group] in the RNA sequence (RNA-Seq) analysis, pathway analysis of genes whose expression levels varied in muscle cells of the aged mice of [MA5 addition group] was performed.
The results of the names of the genes whose expression levels increased or decreased in the aged mice of [MA5 addition group] as compared with the aged mice of [Vehicle group] in the RNA sequence (RNA-Seq) analysis were used to perform integrated analysis with ChIP-Atlas to investigate transcription factors possibly related to these genes.

[4] = tested on: α-Klotho gene-deficient mice; experiment: Survival rate of α-Klotho gene-deficient mice (Kaplan-Meier); format: in vivo; details: oral, 10 mg/kg mouse weight/day from 28 days old until death
Procedure: Water-suspended Compound #5 was orally administered to α-Klotho gene-deficient mice (28 days old) as a premature aging animal model at a dose of 10 mg/kg mouse weight/day, the progress was observed until death, and the survival rate was evaluated from a survival curve based on the Kaplan-Meier method (Klotho homo KO mouse administration group, n=9).
In addition, water was orally administered to α-Klotho gene-deficient mice (28 days old) until death (Klotho homo KO mouse non-administered group, n=9).

[5] = tested on: C57BL6 mice (92 weeks old); experiment: Treadmill running test of aged mice; format: in vivo, mouse; details: aged C57BL6 mice (92 weeks old), oral, 50 mg/kg/day, 2 months
Procedure: as §3, §4

[6] = Plasma metabolite analysis by CE-TOFMS in α-Klotho gene-deficient mice; format: in vivo; details: oral, 10 mg/kg mouse weight/day, 28 to 60 days old
Procedure: Water-suspended Compound #5 was orally administered to α-Klotho gene-deficient mice (28 days old) at a dose of 10 mg/kg mouse weight/day until 60 days old (Klotho homo KO mouse administration group, n=2).
In addition, water was orally administered to wild-type mice (28 days old) and α-Klotho gene-deficient mice (28 days old) until 60 days old (n=2 for each of the wild-type non-administrated group and the Klotho homo KO mouse non-administrated group).
Plasma was prepared from each 60-day-old mouse, and the effect of administration of Compound #5 on plasma metabolites was subjected to target analysis (comprehensive analysis) by CE-TOFMS (manufactured by Human Metabolome Technologies, Inc.).

[7] = tested on: muscle cells of young mice; experiment: RNA-Seq, pathway and ChIP-Atlas analysis of muscle cells of young mice; format: in vivo, mouse; details: oral, 50 mg/kg/day, 2 months
Procedure: as §1, §2
as §5, with “the young” for “aged”, “administration. The results are illustrated in FIG. 16.” for “administration.”
as §6, with “young” for “aged”, “in” for “in muscle cells of the aged mice of”, “performed. The results are illustrated in FIG. 17. […]” for “performed.”

SMILES: O=C(CC(C(=O)O)c1c[nH]c2ccccc12)c1ccc(F)cc1F (stereo not drawn) [Compound #5, 4-(2,4-difluorophenyl)-2-(1H-indole-3-yl)-4-oxo-butanoic acid]
- transcription factors related to genes whose expression increased (ChIP-Atlas) [1]: MYC, OCT4, SOX2, and NANOG related to reprogramming factors in the production of iPS cells, RXR (retinoid X receptor) and PPARA (peroxisome proliferator-activated receptor a) related to SIRT, and TRIM28
- methylation of insulin resistance pathway ([2]; aged mice (92 weeks old)): inhibited
- methylation of insulin signaling pathway ([2]; aged mice (92 weeks old)): inhibited
- methylation of Insulin secretion pathway ([2]; young mice (12 weeks old)): inhibited
- methylation of Signaling pathways regulating pluripotency of stem cells ([2]; young mice (12 weeks old)): inhibited
- methylation of Wnt signaling pathway ([2]; young mice (12 weeks old)): inhibited
- MAPK cascade (pathway analysis) [3]: inhibition
- insulin signaling pathway (pathway analysis) [3]: enhancement
- longevity regulating pathway (pathway analysis) [3]: enhancement
- transcription factors associated with genes whose expression was increased (ChIP-Atlas) ([3]; Table 1): FOXO1 known as longevity genes, KLF4, which is one of reprogramming factors necessary for the production of iPS cells, and KLF2 and KLF5
- expression level of Klf4 Gene ([3]; vs Vehicle group): significantly increased
- expression level of Myc Gene ([3]; vs Vehicle group): significantly increased
- expression level of Nanog Gene ([3]; vs Vehicle group): tended to increase
- expression level of Pou5f1 (Oct4) Gene ([3]; vs Vehicle group): tended to increase
- expression level of Sox2 Gene ([3]; vs Vehicle group): significantly increased
- survival rate [4]: significantly increased
- running time on a treadmill [5]: not reduced
- time until exhaustion (percentage of mice that continue running) ([5]; compared to Vehicle group): significantly improved
- spermidine in plasma [6]: increased
- expression levels of genes related to differentiation, development, and the like of muscles such as Tbx1 Gene [7]: increased
- transcription factors related to the genes whose expression increased (ChIP-Atlas) ([7]; Table 2): SUZ^12 and EZH2
